Measured values taken from ChEMBL document CHEMBL3046811, “Syntheses and in vitro biological screening of 1-aryl-10H-[1,2,4]triazolo[3,4:3,4][1,2,4]triazino[5,6-b]indoles” (Med Chem Res, 2013).

Key:
[1] = system: Respiratory syncytial virus; experiment: Antiviral activity against Respiratory syncytial virus infected African green monkey Vero 76 cells assessed as reduction in plaque number treated after viral infection measured after 5 days by plaque reduction assay; format: functional, organism-based; details: human respiratory syncytial virus, 120 h
Poliovirus 1 = experiment: Antiviral activity against Human poliovirus 1 strain Sabin infected African green monkey Vero 76 cells assessed as reduction in plaque number treated after viral infection measured after 2 days by plaque reduction assay; format: functional, organism-based; details: Enterovirus C, 48 h
[2] = system: Vesicular stomatitis virus; experiment: Antiviral activity against Vesicular stomatitis virus infected African green monkey Vero 76 cells assessed as reduction in plaque number treated after viral infection measured after 2 days by plaque reduction assay; format: functional, organism-based; details: 48 h
Coxsackievirus B2 = experiment: Antiviral activity against Human coxsackievirus B2 infected in African green monkey Vero 76 cells assessed as reduction in plaque number treated after viral infection measured after 3 days by plaque reduction assay; format: functional, organism-based; details: Enterovirus B, 72 h
Vaccinia virus = experiment: Antiviral activity against Vaccinia virus infected African green monkey Vero 76 cells assessed as reduction in plaque number treated after viral infection measured after 3 days by plaque reduction assay; format: functional, organism-based; details: Orthopoxvirus vaccinia, 72 h
[3] = Selectivity index, ratio of CC50 for bovine MDBK cells to EC50 for BVDV infected in bovine MDBK cells
[4] = system: Bovine viral diarrhea virus 1; experiment: Antiviral activity against Bovine viral diarrhea virus 1 infected bovine MDBK cells assessed as protection against virus-induced cytopathogenicity treated 1 hr after viral infection measured after 3-4 days by MTT method; format: functional, organism-based; details: Bovine viral diarrhea virus isolates and strains
[5] = system: Human immunodeficiency virus 1; experiment: Antiviral activity against Human immunodeficiency virus 1 infected human MT4 cells assessed as protection against virus-induced cytopathogenicity treated before viral infection measured after 4 days by MTT assay; format: functional, organism-based; details: Human immunodeficiency virus 1, MT4, 96 h
[6] = Cytotoxicity against Chlorocebus aethiops (African green monkey) Vero 76 cells assessed as inhibition of cell viability after 48 to 120 hr by MTT assay; format: cell-based; details: chlorocebus sabaeus
[7] = Cytotoxicity against Mesocricetus auratus (Syrian golden hamster) BHK21cells assessed as inhibition of cell viability after 48 to 120 hr by MTT assay; format: cell-based; details: BHK-21 cells
[8] = Cytotoxicity against Bos taurus (bovine) MDBK cells assessed as inhibition of cell viability after 48 to 120 hr by MTT assay; format: cell-based; details: cattle
[9] = Cytotoxicity against Homo sapiens (human) MT4 cells assessed as inhibition of cell vaibility after 96 hr by MTT assay; format: cell-based
Human alphaherpesvirus 1 = experiment: Antiviral activity against Human herpesvirus 1 infected African green monkey Vero 76 cells assessed as reduction in plaque number treated after viral infection measured after 3 days by plaque reduction assay; format: functional, organism-based; details: Human alphaherpesvirus 1, Vero, 72 h
[10] = system: Mammalian orthoreovirus 1; experiment: Antiviral activity against Mammalian orthoreovirus 1 infected Syrian hamster BHK-21 cells assessed as protection against virus-induced cytopathogenicity treated 1 hr after viral infection measured after 3-4 days by MTT method; format: functional, organism-based; details: Mammalian orthoreovirus 1, BHK-21
Yellow fever virus = experiment: Antiviral activity against Yellow fever virus infected Syrian hamster BHK-21 cells assessed as protection against virus-induced cytopathogenicity treated 1 hr after viral infection measured after 3-4 days by MTT method; format: functional, organism-based

Row | SMILES | EC50 [1] | EC50 (Poliovirus 1) | EC50 [2] | EC50 (Coxsackievirus B2) | EC50 (Vaccinia virus) | Ratio CC50/EC50 [3] | EC50 [4] | EC50 [5] | CC50 [6] | CC50 [7] | CC50 [8] | CC50 at 96 h [9] | EC50 (Human alphaherpesvirus 1) | EC50 [10] | EC50 (Yellow fever virus)
1 | COc1cc(-c2nnc3nnc4c5ccccc5[nH]c4n23)ccc1O | > 80 µM | > 80 µM | > 80 µM | > 80 µM | > 80 µM | >1.11 | 90 µM | > 58 µM | 80 µM | 45 µM | > 100 µM | 58 µM | > 80 µM | 25 µM | > 45 µM
2 | c1ccc2c(-c3nnc4nnc5c6ccccc6[nH]c5n34)c3ccccc3cc2c1 | > 100 µM | – | – | > 100 µM | – | >33.33 | 3 µM | > 56 µM | ≥ 100 µM | > 100 µM | > 100 µM | 56 µM | > 100 µM | > 100 µM | –
3 | Clc1cccc(-c2nnc3nnc4c5ccccc5[nH]c4n23)c1 | > 60 µM | > 60 µM | > 60 µM | > 60 µM | > 60 µM | >1.45 | 69 µM | > 29 µM | 60 µM | 55 µM | > 100 µM | 29 µM | > 60 µM | > 55 µM | > 55 µM
